The values that follow come from US12070444B2, “Modulation of molecular markers using S-equol” (Board of Regents, The University of Texas System, priority 2020, dated 2024).

For one assay, the target named is T1, ERβ pY36 (Homo sapiens, UniProt Q92731).
T1 construct: host or cells: MDA-MB-231 (human TNBC cell line)
Conditions: breast cancer cells; published work (Yuan, 2016); cited from earlier work.

The test system of a further assay is rat hippocampal neurons. Conditions: cited from earlier work.
The subject of assay [1] is MDA-MB-231 cell-derived xenograft tumor. The experiment in a line: MDA-MB-231 xenograft in athymic nude mice. Format: in vivo. The protocol: Further work in a preclinical animal model supports the notion of using S-equol to treat TNBC breast cancer. In immunocompromised mouse xenograft experiments, which used MDA-MB-231, a human TNBC breast cancer cell line, growth of tumors was suppressed by 60% with S-equol treatment compared to control. 5×10^6 MDA-MB-231 cells were injected orthotopically into mammary gland fat pads of 6 week-old female athymic nude mice (Harlan). When the tumor masses reached 50 to 80 mm^3 (about one week after the inoculation), the mice were given daily subcutaneous injections of S-equol (20 or 60 mg/kg per day) or PBS as a vehicle control. Tumor development was followed by caliper measurements along two orthogonal axes: length (L) and width (W) and volume (V) was estimated by the formula V=[L×(W^2)]/2. […] Representative tumor sections from vehicle control and S-equol-treated mice were tested for Ki-67 expression to assess cell proliferation, and for ERβ ([…]. Statistical significance in the experiments was assessed by two-tailed Student's t test. In all assays, p<0.05 was considered statistically significant. The results of these experiments are shown in FIGS. 16 and 20. See, Yuan et al. 2016 listed below, which is incorporated by reference herein for all purposes.

In another assay the test system is B16. The experiment in a line: B16 tumors in mice with subcutaneous S-equol (Example 6, present tense). Format: in vivo, mouse. Conditions: B16 cells, daily s.c. S-equol 20 or 60 mg/kg per day vs PBS. Here is the method: Further work in a preclinical animal model supports the notion of using S-equol to treat melanoma. In immunocompromised mouse experiments, using B16, a murine tumor cell line know to be useful to study human melanoma metastasis and solid tumor formation, growth of tumors is suppressed with S-equol treatment compared to control. 0.5×10^6 B16 cells are injected into normal BL mice. When the tumor masses reach 50 to 80 mm^3 (about one week after the inoculation), the mice are given daily subcutaneous injections of S-equol (20 or 60 mg/kg per day) or PBS as a vehicle control. Tumor development is followed by caliper measurements along two orthogonal axes: length (L) and width (W) and volume (V) is estimated by the formula V=[L×(W^2)]/2. Tumors harvested from mice are fixed in 10% neutral-buffered formalin, dehydrated, embedded in paraffin, and sectioned at 3 μm thickness. Representative tumor sections from vehicle control and S-equol-treated mice are tested for Ki-67 expression to assess cell proliferation, and for ERβ pY36. Statistical significance in the experiments is assessed by two-tailed Student's t test. In all assays, p<0.05 is considered statistically significant.

Another assay addresses T2, ERβ (Mus musculus, UniProt O08537).
T2 construct: endogenous in cells; b180 instead says mouse 'EF4' (probably EL4) lymphoma cells
The experiment in a line: TCR activated ERβ tyrosine phosphorylation after anti-CD3/CD28 stimulation (IP-Western blot). To be noted: anti-CD3/CD28-stimulated cells, pretreated with S-equol for 4 hrs (FIG. 26A). The assay is classed as cell-based. The source says: FIG. 26. ERβ agonist S-equol promotes CD8+ T cell activation and antitumor immunotherapy. […] FIGS. 26B and 26C show B16 melanoma growth and tumor weight from wild type C57BL/6J male mice with four arm treatments. Vehicle+α-IgG, 5-equol+α-IgG, Vehicle+α-PD-1, S-equol+α-PD-1. […] Vehicle+α-IgG, S-equol+α-IgG, Vehicle+α-PD-1, S-equol+α-PD-1. GSEA analysis in ERβ-high versus ERβ-low human melanoma TILs (tumor infiltrating lymphocytes). The enrichment of (FIG. 26F) NFAT pathway and (FIG. 26G) TNFα signaling were evaluated.
Cells were stained and sorted as previously described (Clark, 2016), using LSR II and FACSAria hardware and analyzed by FACSDiva (BD Bioscience) and FlowJo software (FlowJo, LLC). CD8+ T cell isolation and in vitro activationCD8+ T cells were isolated from the spleens under aseptic conditions. Individual spleens were homogenized to release splenocytes. […] Single-cell suspensions from individual spleens were pooled, filtered through 70 μm and 40 μm cell strainer (Fisher) and counted. […]
Isolated mouse spleen and bone marrow were lysed in RIPA Lysis and 218 Extraction Buffer. Protein amounts were determined by using Pierce BCA Protein Assay Kits (Pierce, Cat: #23225). […] Proteins were detected with ECL SuperSignal™ West Pico PLUS Chemiluminescent Substrate (Thermo Fisher, Cat. #34580).
(Immunoblotting shows a protein as a band on a membrane.)

Structures are written as SMILES. “Also recorded” adds a separate entry of the source.

T1 sequence (Q92731 whole entry): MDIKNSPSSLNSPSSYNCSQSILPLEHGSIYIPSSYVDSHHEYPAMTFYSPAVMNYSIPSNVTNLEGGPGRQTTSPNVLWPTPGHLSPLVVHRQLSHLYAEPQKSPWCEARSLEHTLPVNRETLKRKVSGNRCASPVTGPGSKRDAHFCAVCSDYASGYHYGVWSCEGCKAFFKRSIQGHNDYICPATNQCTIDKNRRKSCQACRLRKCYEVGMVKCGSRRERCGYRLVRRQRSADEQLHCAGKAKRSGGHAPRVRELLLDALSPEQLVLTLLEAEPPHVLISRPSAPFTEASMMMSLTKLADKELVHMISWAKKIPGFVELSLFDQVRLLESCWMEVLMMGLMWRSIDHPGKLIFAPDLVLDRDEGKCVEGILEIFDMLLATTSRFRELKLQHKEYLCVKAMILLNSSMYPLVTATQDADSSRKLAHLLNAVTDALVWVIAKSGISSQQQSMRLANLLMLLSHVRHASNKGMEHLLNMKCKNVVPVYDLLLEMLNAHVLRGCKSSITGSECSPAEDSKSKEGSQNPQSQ
T2 sequence (O08537 whole entry): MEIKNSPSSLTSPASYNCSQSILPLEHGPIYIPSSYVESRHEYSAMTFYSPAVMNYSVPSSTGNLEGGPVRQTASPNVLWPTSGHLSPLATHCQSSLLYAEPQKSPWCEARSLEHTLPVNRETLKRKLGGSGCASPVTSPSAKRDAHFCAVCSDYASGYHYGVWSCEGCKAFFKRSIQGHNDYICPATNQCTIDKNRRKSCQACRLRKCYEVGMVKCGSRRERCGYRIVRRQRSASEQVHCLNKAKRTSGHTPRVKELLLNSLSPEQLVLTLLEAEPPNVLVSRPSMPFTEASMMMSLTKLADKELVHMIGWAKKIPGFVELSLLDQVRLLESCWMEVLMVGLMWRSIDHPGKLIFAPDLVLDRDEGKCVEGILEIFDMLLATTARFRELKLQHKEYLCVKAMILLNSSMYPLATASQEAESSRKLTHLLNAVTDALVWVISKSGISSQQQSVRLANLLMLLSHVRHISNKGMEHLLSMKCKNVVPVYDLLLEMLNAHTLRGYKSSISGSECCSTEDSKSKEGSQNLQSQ

On to `Oc1ccc([C@H]2COc3cc(O)ccc3C2)cc1` [S-equol], for which, at ERβ pY36, the “human ERβ phosphorylation at Y36” value is “promotes”. For the same compound, in the assay with rat hippocampal neurons, the “respiratory and maximal glycolysis fluxes” value is “increase”. The xenograft tumor growth entry in assay [1] (S-equol vs vehicle (FIG. 16B, FIG. 20)) is recorded as “inhibited; also recorded: reduces the growth of TNBC cells”. For the same compound, in assay [1] (daily s.c. S-equol 20 or 60 mg/kg per day vs PBS), the “growth of tumors suppressed compared to control” value was 60%. Further, the “growth of tumors compared to control” value in the assay on B16 was “suppressed”. Besides, the “TCR activated ERβ tyrosine phosphorylation” value at ERβ is “further enhanced”.
